Results: patent US10610467B2, “Lightening composition comprising ginseng-derived exosome-like vesicles” (AMOREPACIFIC CORPORATION, priority 2015, dated 2020)

Tested on: Human primary melanocytes
Experiment: Melanin production by human melanocytes irradiated with 20 mJ/cm^2 UVB 2 times, treated with test substances for 2 weeks (Test Example 3)
Type: cell-based
Description: Human primary melanocytes (Life Technologies, CA, USA) were cultured in M-254 medium (Gibco BRL, NY, USA) supplemented with human melanocyte growth supplement (HMGS; Gibco BRL, NY, USA) under the condition of 37° C. and 5% CO2. After plating the cells on a 100-mm culture dish with 2×10^5 cells per dish and waiting overnight, 20 mJ/cm^2 UVB was radiated 2 times with a 24-hour interval. Then, the cells were cultured for 2 weeks while replacing the medium with one containing the ginseng-derived exosome-like vesicles obtained in Example 1 at concentrations of 0.1 μg/mL, 1 μg/m L, 5 μg/mL or 10 μg/mL once in 4 days. For comparison, positive control groups were treated with 30 μM Melasolv, 1 μM compound K or 2 ppm fermented saponin for 2 weeks in the same manner and melanin production was measured. As negative control groups, melanocytes not treated with UVB and melanocytes treated with UVB but not treated with the test substances were cultured in the same manner. 2 weeks later, the cells were detached from the culture dish and counted. The cells of the same number were collected into a microtube, lysed with a RIPA lysis buffer (Millipore, 20-188) and then centrifuged at 13,500 rpm for 30 minutes. The precipitating pellets were dissolved in 1 N NaOH and photographed for comparison of color. Melanin contents were compared by measuring absorbance at 450 nm.

Row | SMILES | Decrease (%) in melanin contents (1 μM) | Decrease (%) in melanin contents (30 μM)
1 | CC(C)=CCC[C@](C)(O[C@@H]1O[C@H](CO)[C@@H](O)[C@H](O)[C@H]1O)[C@H]1CC[C@]2(C)[C@@H]1[C@H](O)C[C@@H]1[C@@]3(C)CC[C@H](O)C(C)(C)[C@@H]3CC[C@]12C [Comp. K, compound K] | 28.3% | –
2 | COc1cc(/C=C/C(=O)Oc2cc(C)ccc2C(C)C)cc(OC)c1OC [Melasolv] | – | 54.0%
